Tests used:
[1] = system: A549-ACE2 infected with SARS-CoV-2; test: cell count relative to DMSO; higher = less toxic; conditions: 24 h
Caco-2 [2] = test: cell viability relative to DMSO; higher = less toxic; conditions: 72 h
HepG2 [3] = test: as above; conditions: 72 h
U2OS [4] = test: as above; conditions: 72 h
Vero E6 [5] = test: as above; conditions: 72 h
[6] = system: A549-ACE2 infected with SARS-CoV-2; test: SARS-CoV-2 infection rate relative to DMSO; higher = more infection; conditions: 24 h
A549-ACE2 [7] = test: drug-induced phospholipidosis relative to tamoxifen; higher = more phospholipidosis
[8] = system: A549-ACE2 infected with SARS-CoV-2; test: morphology score (similarity to uninfected cells); higher = more like uninfected cells; conditions: 24 h
Caco-2 [9] = test: relative viability EC50 (midpoint between 100% and the lowest measured viability); higher = less toxic; conditions: 72 h
HepG2 [10] = test: as above; conditions: 72 h
U2OS [11] = test: as above; conditions: 72 h
Vero E6 [12] = test: as above; conditions: 72 h
Caco-2 [13] = test: drug sensitivity score (DSS) for viability; higher = more toxic; extreme values may be limits of the assay; conditions: 72 h
HepG2 [14] = test: as above; conditions: 72 h
U2OS [15] = test: as above; conditions: 72 h
Vero E6 [16] = test: as above; conditions: 72 h
A549-ACE2 [17] = test: phospholipidosis EC50; higher = less potent phospholipidosis inducer; conditions: 24 h
Calu-3 [18] = test: drug sensitivity score (DSS) for viability; higher = more toxic; extreme values may be limits of the assay; conditions: 72 h
Calu-3 [19] = test: cell viability relative to DMSO; higher = less toxic; conditions: 72 h
Calu-3 [20] = test: relative viability EC50 (midpoint between 100% and the lowest measured viability); higher = less toxic; conditions: 72 h

CN1C2C=C(c3sccc3Br)CC1CC2 (stereo not drawn) [NS-3861]
Conditions	SARS-CoV-2 infection rate, [6] [%]	cell count, [1] [%]	cell viability, Caco-2 [2] [%]	cell viability, HepG2 [3] [%]	cell viability, U2OS [4] [%]	cell viability, Vero E6 [5] [%]	morphology score, [8]
1 nM	–	–	101	107	97.6	98.9	–
10 nM	–	–	103	107	101	99.5	–
100 nM	–	–	92.4	97.2	95.3	99	–
0.3 µM	97	99	–	–	–	–	0
1000 nM	–	–	106	89.2	100	96.7	–
3 µM	83	109	–	–	–	–	0.45
10 µM	75	104	–	–	–	–	0.4
10000 nM	–	–	101	92.5	94.6	97.2	–
30 µM	41	113	–	–	–	–	0.77

drug-induced phospholipidosis [%], A549-ACE2 [7]
Conditions	0.3 µM	0.833333 µM	3.33333 µM	6.66667 µM	10 µM	30 µM
24 h	1.11	-3.88	-0.69	-1.21	2.15	14.7
48 h	2.52	-3.07	-1.18	-0.52	-0.04	12.8
72 h	4.83	-2.54	-0.115	0.151	0.487	12.9

Conditions	drug sensitivity score	relative viability EC50 [µM]
Caco-2 [9]	–	> 10
Caco-2 [13]	0	–
HepG2 [10]	–	> 10
HepG2 [14]	0.3	–
U2OS [11]	–	> 10
U2OS [15]	0	–
Vero E6 [12]	–	> 10
Vero E6 [16]	0	–

COc1cc(C(=O)NC2CCN(C)CC2)c(F)cc1Nc1ncc2c(n1)N(C1CCCC1)CC(F)(F)C(=O)N2C [TAK-960]
Conditions	drug sensitivity score	phospholipidosis EC50 [µM]
A549-ACE2 [17]	–	3.2
Caco-2 [13]	10.9	–
Calu-3 [18]	4.3	–
HepG2 [14]	21.8	–
U2OS [15]	12.5	–
Vero E6 [16]	12.5	–

[8]
Conditions	morphology score
0.1 µM	-0.06
0.3 µM	-0.01
1 µM	0.15
3 µM	0.58

C[C@@H]1O[C@@H](O[C@@H]2[C@@H](O)[C@H](OCCc3ccc(O)c(O)c3)O[C@H](CO)[C@H]2OC(=O)/C=C/c2ccc(O)c(O)c2)[C@H](O)[C@H](O)[C@H]1O [verbascoside]
cell viability [%]
Conditions	Caco-2 [2]	Calu-3 [19]	HepG2 [3]	U2OS [4]	Vero E6 [5]
1 nM	96.4	98.6	95.3	97.9	98.9
10 nM	89.7	93.3	102	100	99.8
100 nM	97.8	106	101	96.5	94.4
1000 nM	99.8	105	106	96.8	101
10000 nM	96.9	97.1	104	93.6	104

Conditions	drug sensitivity score	relative viability EC50 [µM]
Caco-2 [9]	–	> 10
Caco-2 [13]	0	–
Calu-3 [18]	0	–
Calu-3 [20]	–	> 10
HepG2 [10]	–	> 10
HepG2 [14]	0	–
U2OS [11]	–	> 10
U2OS [15]	0	–
Vero E6 [12]	–	> 10
Vero E6 [16]	0	–

CCOc1ccccc1OCC1CNCCO1 (stereo not drawn) [viloxazine]
cell viability [%]
Conditions	Caco-2 [2]	Calu-3 [19]	HepG2 [3]	U2OS [4]	Vero E6 [5]
1 nM	111	86.6	116	94.8	96.4
10 nM	99.5	98.2	91.7	98.5	89.4
100 nM	113	98.6	111	102	94.1
1000 nM	118	100	94.7	104	92.2
10000 nM	95.6	111	96.6	105	102

Conditions	drug sensitivity score	relative viability EC50 [µM]
Caco-2 [9]	–	> 10
Caco-2 [13]	0	–
Calu-3 [18]	0	–
Calu-3 [20]	–	> 10
HepG2 [10]	–	> 10
HepG2 [14]	0	–
U2OS [11]	–	> 10
U2OS [15]	0	–
Vero E6 [12]	–	> 10
Vero E6 [16]	0	–

CC[C@]12CCCN3CCc4c(n(c5ccccc45)[C@@](O)(C(=O)OC)C1)[C@@H]32 [vincamine]
cell viability [%]
Conditions	Caco-2 [2]	Calu-3 [19]	HepG2 [3]	U2OS [4]	Vero E6 [5]
1 nM	101	103	99.1	95.3	103
10 nM	105	94.2	73.5	99.3	89.9
100 nM	91.6	94.9	118	96.2	104
1000 nM	101	95.6	102	99.7	94
10000 nM	100	102	97.7	97.3	97.7

Conditions	drug sensitivity score	relative viability EC50 [µM]
Caco-2 [9]	–	> 10
Caco-2 [13]	0	–
Calu-3 [18]	0	–
Calu-3 [20]	–	> 10
HepG2 [10]	–	> 10
HepG2 [14]	0	–
U2OS [11]	–	> 10
U2OS [15]	0	–
Vero E6 [12]	–	> 10
Vero E6 [16]	0	–

CCCCCCOc1nsnc1C1=CCCN(C)C1 [xanomeline]
cell viability [%]
Conditions	Caco-2 [2]	Calu-3 [19]	HepG2 [3]	U2OS [4]	Vero E6 [5]
1 nM	109	101	102	95.3	105
10 nM	93.8	115	102	102	104
100 nM	99.1	100	100	97.5	106
1000 nM	92.3	104	99.3	98.9	101
10000 nM	99.1	96.6	79.3	92.3	95.9

Conditions	drug sensitivity score	relative viability EC50 [µM]
Caco-2 [9]	–	> 10
Caco-2 [13]	0	–
Calu-3 [18]	0	–
Calu-3 [20]	–	> 10
HepG2 [10]	–	> 10
HepG2 [14]	0.7	–
U2OS [11]	–	> 10
U2OS [15]	0	–
Vero E6 [12]	–	> 10
Vero E6 [16]	0	–
